Data set [1] concerns iCell Cardiomyocytes2 (hSC-CMs). Nature of the data set: Ca2+-fluorescence assay in human pluripotent stem cell-derived cardiomyocytes (CTCM human). Format: cell-based. Details: key to Hazard Scoring Color @ 0.1 μM / Hazard Scoring Color @ 0.2 μM / Hazard Scoring Color @ 0.5 μM / Hazard Scoring Color @ 1 μM / Hazard Scoring Color @ 2.5 μM / Hazard Scoring Color @ 5 μM / Hazard Scoring Color @ 0.3 μM / Hazard Scoring Color @ 3 μM / Hazard Scoring Color @ 10 μM / Hazard Scoring Color @ 30 μM: Green: No concern; Yellow: Low concern; Red: High concern; Black: Very high concern due to arrhythmic events. As to conditions: 30 min. How it is done: 7) Cardio-Electrophysiological Effects of the Testing Compounds in Synchronously Beating Human Pluripotent Stem Cell-Derived Cardiomyocytes (hSC-CMs) Using a Ca^2+-Fluorescence Assay (CTCM Human)
Compounds were tested in the 96-well plates.
Compounds were tested at 0.1 μM, 0.2 μM, 0.5 μM, 1 μM, 2.5 μM and 5 μM (n=4 per dose) on Cor.4U®-Cardiomyocytes or on iCell® Cardionyocytes2.
Alternatively, compounds were tested at 0.1 μM, 0.3 μM; 1 μM, 3 μM, 10 μM and 30 μM (n=4 per dose) mostly on iCell® Cardiomyocytes2.
Vehicle control: Dimethylsulfoxide (DMSO). The solutions of the compound in DMSO or its solvent (final concentration of 0.1% DMSO; n=8).
Tested compounds were dissolved in DMSO at 1000-fold the intended concentrations. A compound “mother-plate” was made, containing the test compounds and positive and negative controls at 1000-fold the final concentrations. At the experiment day, these stock solutions were diluted with Tyrode (Sigma), supplemented with 10 mM HEPES (Gibco), to 2-fold the intended concentration (in round bottom compound plates). Final DMSO concentration in test solutions and vehicle control was 0.1%.
hSC-CMs (Cor.4U® Cardiomyocytes) were obtained from CDI (Ncardia, Germany). Cells are pre-plated and seeded in fibronectin-coated 96-well plates at a density suited to form a monolayer and maintained in culture in a stage incubator (37° C., 5% CO2), according to the instructions of the cell provider.
Second line hSC derived cardiomyocyte called iCell® Cardiomyocytes2 were purchased from FUJIFILM Cellular Dynamics (USA). The experiments with test drugs are carried out 5 to 7 days after plating the cells onto the plate to have a living, beating monolayer of hiPSC-derived cardiomyocytes. The beating monolayer in 96-well-plates are normally taken from 2 Vials of frozen iCell® Cardiomyocytes2 (≈5 million cells/vial), which will be plated onto three 96-well plates (≈50K/well).
At least one hour before the start of the experiments the normal cell medium was replaced with Tyrode solution with Calcium dye (see below).
Cal 520 dye (AAT Bioquest) was dissolved in 11 ml of Tyrode supplemented with 10 mM HEPES and warmed up to 37 C before adding to the cells.
35 μl cell culture medium was removed from each well and replaced with 35 μl of pre-warmed Cal 520 dye solution and cell plate was incubated for 45 min at 37° C./5% CO2. Cells were incubated for 5 min at 37° C.
Spontaneous electrical activity is recorded, using Cal520™ (AAT Bioquest) calcium fluorescence-dye signalling. This dye integrates the total intracellular calcium activity over the whole well. A bottle of Ca1520 dye (50 μg, MW: 1103/mol) is dissolved with 50 μl DMSO as a stock solution of 0.9 mM. 50 μL of the stock solution of the dye was added to 10 ml Tryodes solution to have dye concentration of 4.5 μM. Subsequently, 35 μl of this dye solution was added into each well, to have a final dye concentration of 1.58 μM. The current dye protocol on this CTCM human assay was established recently (Ivan Kopljar et al, Journal of Pharmacological and toxicological methods 2018. 91: 80-86; Lu et al., Tox Sci 2019. 170 (2): 345-356).
Fluorescent signals (Ca^2+ transient morphology) were measured using the Functional Drug Screen System (FDSS/μCell; Hamamatsu, Japan) and the recordings were subsequently analyzed off-line, using appropriate software e.g., Notocord.
The cell plate was loaded into the FDSS/μCell for a test run: Ca^2+ transients were measured for 4 minutes to check for synchronous beating of the cardiomyocytes in each well. All 96 wells were measured simultaneously (sampling interval: 0.06 s, short exposure time: 10 ms; excitation wavelength 480 nm; emission wavelength 540 nm; FDSS/μCell warmed to 37° C.).
During the compound addition step, 100 μl of the respective double-concentrated test solutions was pipetted into each well simultaneously.
Data were analyzed off-line using appropriate software e.g., Notocord-Hem (version 4.3). […]

For the next data set, the system named is KO-52 cells. The data set can be described thus: Proliferation assay (spheroid), KO-52 control cell line. It is filed as cell-based. As to conditions: Homo sapiens, 8 days, read-out: spheroid assay_OneTime KO-52 IC50. How it is done:
(§1) The anti-proliferative effect of menin/MLL protein/protein interaction inhibitor test compounds was assessed inhuman leukemia cell lines. The cell line MOLM-14 harbors a MLL translocation and expresses the MLL fusion protein MLL-AF9, respectively, as well as the wildtype protein from the second allele. OCI-AML3 cells that carry the NPM1c gene mutation were also tested. […] KO-52 was used as a control cell line containing two MLL (KMT2A) wildtype alleles in order to exclude compounds that display general cytotoxic effects.
(§2) KO-52 and OCI-AML3 cell lines were propagated in alpha-MEM (Sigma Aldrich) supplemented with 20% heat-inactivated fetal bovine serum (HyClone), 2 mM L-glutamine (Sigma Aldrich) and 50 μg/ml gentamycin (Gibco).
In order to assess the anti-proliferative effects, 200 MOLM-14 cells, 200 OCI-AML3 cells or 300 KO-52 cells were seeded in 200 μl media per well in 96-well round bottom, ultra-low attachment plates (Costar, catalogue number 7007). […] Spheroid like growth was measured in real-time by live-cell imaging (IncuCyteZOOM, Essenbio, 4× objective) acquiring images at day 8. Confluence (%) as a measure of spheroid size was determined using an integrated analysis tool.
In order to determine the effect of the test compounds over time, the confluence in each well as a measure of spheroid size, was calculated. […]

The next data set concerns OCI-AML3 cells. Nature of the data set: Proliferation assay (spheroid), OCI-AML3. The conditions noted are these: Homo sapiens, OCI-AML-3, […], 8 days. It is filed as cell-based, human. As for the experimental part: as §1, §2
In order to assess the anti-proliferative effects, 200 MOLM-14 cells, 200 OCI-AML3 cells or 300 KO-52 cells were seeded in 200 μl media per well in 96-well round bottom, ultra-low attachment plates (Costar, catalogue number 7007). Cell seeding numbers were chosen based on growth curves to ensure linear growth throughout the experiment. Test compounds were added at different concentrations and the DMSO content was normalized to 0.3%. Cells were incubated for 8 days at 37° C. and 5% CO2. Spheroid like growth was measured in real-time by live-cell imaging (IncuCyteZOOM, Essenbio, 4× objective) acquiring images at day 8. Confluence (%) as a measure of spheroid size was determined using an integrated analysis tool.
In order to determine the effect of the test compounds over time, the confluence in each well as a measure of spheroid size, was calculated. Confluence of the highest dose of a reference compound was used as baseline for the LC (Low control) and the confluence of DMSO treated cells was used as 0% cytotoxicity (High Control, HC).
HC=High Control: Mean confluence (%) (DMSO treated cells);
Dose-response equation was used for the plot of % Effect vs Log10 compound concentration with a variable slope and fixing the maximum to 100% and the minimum to 0%. 2b) MEIS1 mRNA Expression Assay

[2] abbreviates: iCell Cardiomyocytes2 (Table 12).
The mark [3] stands for this setting: iCell Cardiomyocytes2 (Table 11).

Molecules are shown by their SMILES. Where a name gives a salt, the structure may show the parent alone.

Usually IC50 stands for the concentration at which inhibition is half-maximal. `CCN(C(=O)c1cc(F)ccc1Oc1nncnc1N1CCC2(C1)CN([C@H](CCCNCCOC)C(C)C)C2)C(C)C` [Compound 11, (R)-N-ethyl-5-fluoro-N-isopropyl-2-((5-(2-(6-((2-methoxyethyl)amino)-2-methylhexan-3-yl)-2,6-diazaspiro[3.4]octan-6-yl)-1,2,4-triazin-6-yl)oxy)benzamide]: in data set [1] (setting [2]), the “Hazard Scoring Color @ 0.1 μM” value was “Green” and the “Hazard Scoring Color @ 1 μM” value is recorded as “Green”. Moreover, the “Hazard Scoring Color @ 0.3 μM” value in data set [1] (0.3 μM, iCell Cardiomyocytes2 (Table 12)) is on record as “Green”. Besides, in data set [1] (3 μM, iCell Cardiomyocytes2 (Table 12)), the “Hazard Scoring Color @ 3 μM” value is on record as “Green”. In addition, the “Hazard Scoring Color @ 10 μM” value in data set [1] (10 μM, iCell Cardiomyocytes2 (Table 12)) is recorded as “Green”. Further, in data set [1] (30 μM, iCell Cardiomyocytes2 (Table 12)), the “Hazard Scoring Color @ 30 μM” value is “Green”. For the same compound, the IC50 with KO-52 cells was 8.38 µM. Moreover, the half-maximal inhibitory concentration (IC50) in the data set on OCI-AML3 cells is 0.21 µM.

Regarding `CCN(C(=O)c1cc(F)ccc1Oc1nncnc1N1CCC2(C1)CN([C@H](CCCN(C)CCOC)C(C)C)C2)C(C)C` [Compound A3, (R)-N-ethyl-5-fluoro-N-isopropyl-2-((5-(2-(6-((2-methoxyethyl) (methyl)amino)-2-methylhexan-3-yl)-2,6-diazaspiro[3.4]octan-6-yl)-1,2,4-triazin-6-yl)oxy) benzamide oxalate], in data set [1] (setting [3]), the “Hazard Scoring Color @ 0.1 μM” value is on record as “Green” and the “Hazard Scoring Color @ 1 μM” value is given as “Green”. For the same compound, the “Hazard Scoring Color @ 0.2 μM” value in data set [1] (0.2 μM, iCell Cardiomyocytes2 (Table 11)) is recorded as “Green”. Further, the “Hazard Scoring Color @ 0.5 μM” value in data set [1] (0.5 μM, iCell Cardiomyocytes2 (Table 11)) is recorded as “Green”. Moreover, the “Hazard Scoring Color @ 2.5 μM” value in data set [1] (2.5 μM, iCell Cardiomyocytes2 (Table 11)) is “Green”. Also, in data set [1] (5 μM, iCell Cardiomyocytes2 (Table 11)), the “Hazard Scoring Color @ 5 μM” value is listed as “Green”. Besides, the IC50 in the data set on KO-52 cells was found to be 7.75 µM. Besides, in the data set on OCI-AML3 cells, the IC50 came out at 0.12 µM.

Values taken from patent US20240261292A1, “COMBINATION THERAPIES” (Janssen Pharmaceutica NV, priority 2021, published 2024).
